Data set [1] in a line: Quenching of acridine orange fluorescence on incorporation into liposomes. It is filed as physicochemical. Conditions: liposomes with external ammonium sulfate removed. The protocol:
In order to further substantiate the existence of the ammonium gradient, the same experiment as described above was repeated with the other compounds such as acridine orange, a cytotoxic drug acridine orange is an amphiphatic weak base (pK=9.25), which has the advantage of being fluorescent. Instead of trapping pyranine inside the ammonium sulfate liposomes, liposomes were added to a solution containing acridine orange. The quenching of the resulting solution was monitored following partitioning into the aqueous phase of the liposome, using the experimental designs described in Example 5 and illustrated in FIG. 2.
Inset graph is an example of one of the experiments. Percentage of fluorescence intensity (F.I.) of acridine orange was monitored continuously and is shown here as (a). At the specified time (b) liposomes were added and the quenching was followed. At steady state, 5 um of nigericin was added, shown here as (c) and the extent of the release of quenching was used to calculate the ammonium sulfate gradient dependent fluorescence intensity. The details of the experiment are described in Example 5.
1 umol of acridine orange was added to a solution containing different proportions of potassium chloride and ammonium sulfate. The solution was designed to get different outside-inside gradients of ammonium sulfate when the liposomes are added. […] The recovery of fluorescence was monitored. […]

The conditions of data set [2]: cited from earlier work.
Data set [3] in a line: Loading of daunorubicin into ammonium sulfate liposomes.
Method: After separation of untrapped ammonium sulfate by Sephadex G- 50, 1 ml of the liposome dispersion was mixed with 10 mg of daunorubicin dissolved in 1 ml of 50° C. and at specified time intervals aliquots were taken.
For data set [4] the following is noted: sodium/potassium gradient with valinomycin; cited from earlier work.
For data set [5] the following is noted: around 24 hours; cited from earlier work.
A short description of data set [6]: Loading of doxorubicin into ammonium sulfate liposomes (NH4+ gradient), Dowex removal of free drug. It counts as physicochemical. The conditions noted are these: biphasic, FIG. 3.
Method: Two preparations of liposomes were used, one composed of EPC and cholesterol in molar ratio of 2:1; and second of DPPC and cholesterol in molar ratio 2:1.
The loading was started after removal of external untrapped ammonium sulfate by Sephadex G-50 gel exclusion chromatography.
Dowex binds Desferal and therefore the latter was added to final concentration of 0.5 mM immediately after the removal of the free drug by Dowex.
In order to determine the concentration of a loaded drug inside liposomes, the internal aqueous osmotic volume of the vesicles was measured. This was done by the entrapment of the non-measurable radioactive tracer ^3 H inulin. The comparison of the radioactivity per mole phospholipids before and after removal of the untrapped inulin was used to determine trapped volume using a procedure described in individual examples.
In all cases the gradient was obtained by gel exclusion chromatography of the liposomes after ammonium sulfate loading.
The incubation was shorter for certain types of kinetic experiments. At the end of incubation period, the mixture was passed through a Dowex 50 WX-4 (Serva) column to adsorb the free, unincorporated drug. […] A column containing 1-2 g dry weight of the resin was sufficient to adsorb all unincorporated drug. […] EPC was used for a standard curve.
The mixture was incubated at room temperature for approximately 24 hours. […]
Data set [7] is described as follows: Self-quenching of doxorubicin fluorescence. It counts as physicochemical. How it is done: The measurements were carried on a Perkin-Elmer MPF-44 spectrofluorometer, using excitation/emission wavelengths of 470 nm and 590 nm respectively. […] This was calculated from the difference between the fluorescence of the liposomes prepared according to Examples 1-4, and the fluorescence of the same mixture after diluting it 10 times with isopropanol containing 10% of 0.75% HCI. […] A correction for the difference in fluorescence of doxorubicin in water and the acidified isopropanol solution, deduced from measurements of the fluorescence of "free" drug in the two solutions, was introduced. The small amount of unquenched doxorubicin is probably due to some free-drug that leaked out of the vesicles.

For data set [8] the following is noted: Biochemistry, 21:3927-3932; cited from earlier work.
The text on data set [9]: For this, ammonium carbonate (0.12M) was placed in a beaker. The ultrasound probe was attached to the beaker.

Read-outs that look alike come from different tables or passages of the source.

As to `CN(C)c1ccc2cc3ccc(N(C)C)cc3nc2c1` [Acridine orange], the “Quenching of acridine orange fluorescence” value in data set [1] is 96.5%. Further, the pK in [2] is 9.25.
On to `COc1cccc2c1C(=O)c1c(O)c3c(c(O)c1C2=O)C[C@@](O)(C(C)=O)C[C@@H]3O[C@H]1C[C@H](N)[C@H](O)[C@H](C)O1` [Daunorubicin], for which, in data set [3], the “Rate of incorporation compared with doxorubicin” value was “higher than that of doxorubicin” and the “Time to completion of incorporation” value is “less than one hour”.
As for `CCCCOc1cc(C(=O)NCCN(CC)CC)c2ccccc2n1` [Dibucaine], the Loading result in data set [4] was “up to 52%”.
For the compound `COc1cccc2c1C(=O)c1c(O)c3c(c(O)c1C2=O)C[C@@](O)(C(=O)CO)C[C@@H]3O[C@H]1C[C@H](N)[C@H](O)[C@H](C)O1` [Doxorubicin], the Leakage from liposomes result in [5] is recorded as “substantial leakage”. For the same compound, the “Duration of slower phase of loading” value in [6] is listed as “about 24 hours”. In addition, the “Concentration above which fluorescence is quenched” value in data set [7] (in saline) is on record as “higher than 10^-6 M”. Further, the Quenching in data set [7] (in solution, concentration 1.7.10^-4, corrected for inner filter effect) is reported as 33%; in data set [7] (in solution, concentration 3.4.10^-5, corrected for inner filter effect) it was 16%; in [7] (in solution, concentration 6.9.10^-5, corrected for inner filter effect), 25%; in data set [7] (inside the liposomes) it was approximately 100%. The “Concentration above which dimers and aggregates form” value in [8] is “higher than 1 um”.
Regarding `N.N.O=C(O)O` [ammonium carbonate], the Ultrasound signal entry in data set [9] (HCl added to pH 4.0) was “large signal”; in data set [9] (before acidification, 0.12M), “No signal was observed”.

The record behind these values is US5316771A, “Method of amphiphatic drug loading in liposomes by ammonium ion gradient” (priority 1992, dated 1994).
